Results on 15 molecules are retold here after ChEMBL document CHEMBL1139047, “Design and synthesis of a novel class of furan-based molecules as potential 20S proteasome inhibitors” (Bioorg Med Chem Lett, 2007).

A short description of test [1]: Inhibition of chymotrypsin-like activity of 20S proteasome. The test is classed as subcellular, Homo sapiens.
Test [2] can be described thus: Inhibition of trypsin-like activity of 20S proteasome. The format is subcellular, Homo sapiens.
A short description of test [3]: Inhibition of peptidyl-glutamyl peptide hydrolase activity of 20S proteasome. The test is classed as subcellular, Homo sapiens.
Test [4] has as its system HepG2. As to the kind of experiment: Antiproliferative activity against human HepG2 cells. The test is classed as functional, cell-based.
Test [5] deals with HL-60. As to the kind of experiment: Antiproliferative activity against human HL60 cells. The test is classed as functional, cell-based.

In the case of `CC[C@@H](C)[C@H](NC(=O)[C@H](NCc1ccccc1)[C@H](O)[C@H](Cc1ccccc1)NC(=O)OC(C)(C)C)C(=O)c1ccco1`, the IC50 in test [1] is more than 100 µM.
For `CC[C@H](C)[C@H](NC(=O)[C@@H](NC(=O)[C@H](Cc1ccccc1)NC(=O)OC(C)(C)C)C(C)C)C(=O)c1ccco1`, the IC50 in test [1] was more than 100 µM.
The same measure, in the same setting: next, `CC[C@@H](C)[C@H](NC(=O)[C@H](Nc1ccccc1)[C@H](O)[C@H](Cc1ccccc1)NC(=O)OC(C)(C)C)C(=O)c1ccco1`: more than 100 µM.
Regarding `CC(C)C[C@H](NC(=O)[C@H](Cc1ccccc1)NC(=O)[C@H](Cc1ccccc1)NC(=O)OC(C)(C)C)C(=O)c1ccco1`, the IC50 in test [1] was 7.85 µM; in test [2], more than 100 µM; in test [3] it was more than 100 µM; in test [4] it was 34.2 µM; in test [5], 37.1 µM.
On to `CC(C)[C@H](NC(=O)[C@H](Nc1ccccc1)[C@H](O)[C@H](Cc1ccccc1)NC(=O)OC(C)(C)C)C(=O)c1ccco1`, for which the IC50 in test [1] is more than 100 µM.
`CC(C)[C@H](NC(=O)[C@H](Cc1ccccc1)NC(=O)[C@H](Cc1ccccc1)NC(=O)OC(C)(C)C)C(=O)c1ccco1` displayed an IC50 in test [1] of more than 100 µM.
Same read-out and setting: next, `CC(C)C[C@H](NC(=O)[C@@H](NC(=O)[C@H](Cc1ccccc1)NC(=O)OC(C)(C)C)C(C)C)C(=O)c1ccco1`: more than 100 µM; `CC(C)[C@H](NC(=O)[C@H](Cc1ccccc1)NC(=O)OC(C)(C)C)C(=O)N[C@H](C(=O)c1ccco1)C(C)C`: more than 100 µM.
Same read-out and setting: next, `CC(C)C[C@H](NC(=O)[C@H](Cc1ccccc1)NC(=O)OC(C)(C)C)C(=O)N[C@@H](CC(C)C)C(=O)c1ccco1`: more than 100 µM; `CC[C@H](C)[C@H](NC(=O)[C@H](CC(C)C)NC(=O)[C@H](Cc1ccccc1)NC(=O)OC(C)(C)C)C(=O)c1ccco1`: more than 100 µM; `CC(C)C[C@H](NC(=O)[C@H](NCc1ccccc1)[C@H](O)[C@H](Cc1ccccc1)NC(=O)OC(C)(C)C)C(=O)c1ccco1`: more than 100 µM.
The molecule `CC[C@H](C)[C@H](NC(=O)[C@H](Cc1ccccc1)NC(=O)[C@H](Cc1ccccc1)NC(=O)OC(C)(C)C)C(=O)c1ccco1` returned an IC50 in test [1] of more than 100 µM.
Turning to `CC(C)[C@H](NC(=O)[C@H](NCc1ccccc1)[C@H](O)[C@H](Cc1ccccc1)NC(=O)OC(C)(C)C)C(=O)c1ccco1`, the IC50 in test [1] is more than 100 µM.
In test [1], `CC(C)C[C@H](NC(=O)[C@H](Nc1ccccc1)[C@H](O)[C@H](Cc1ccccc1)NC(=O)OC(C)(C)C)C(=O)c1ccco1` displayed a half-maximal inhibitory concentration (IC50) of more than 100 µM.
Turning to `CC(C)C[C@H](NC(=O)[C@H](Cc1ccccc1)NC(=O)OC(C)(C)C)C(=O)N[C@H](C(=O)c1ccco1)C(C)C`, the IC50 in test [1] is more than 100 µM.
